Laboratory results from patent US5306732A, “Tumor necrosis factor antagonist” (Xenova Limited, priority 1989, dated 1994).

Key:
[1] = tested on: L929 cells; experiment: cells; assay type: cell-based; settings: Mus musculus, L929, read-out: Inhibition of TNF-induced cytotoxicity
Description: (§1) TNF causes lysis at low concentrations in sensitive cell lines. A cell line, known to be sensitive to TNF, was challenged with the cytokine in the presence of vinigrol and the reduction in cell mortality (as measured by cell staining) quantified in a manner similar to the method of Matthews, Immunology, 48, 321 (1982). A measurement of the cytotoxicity of vinigrol at the various concentrations was also carried out. L929 cells (4×10^4 /well) were incubated in RPMI 1640 medium containing 10ng/ml TNF, 0.05% lactalbumin hydrolysate and 1μg/ml actinomycin D plus the stated concentration of vinigrol overnight at […]. Cells were washed, fixed with methanol, stained with crystal violet and the cell density quantified by measuring absorbance at 590nm. The cytotoxicity of the samples was determined using the above method but excluding the TNF, in which experiments cell death would be due to the added vinigrol.

[2] = tested on: TNF-receptor; experiment: TNF-receptor binding assay: binding of [125 I]-TNF to intact HL 60 cells; settings: [125 I]-TNF 700pM, 2 hours at room temperature
Description: An in-vitro binding assay, based upon the measurement of binding of [^125 I]-TNF to intact cells, was used to measure the TNF/vinigrol interaction. The assay is similar to that of Imamura et al, J. Biol. Chem, 263, 10247-10253 (1988). More particularly, HL 60 cells (ATCC CCL 240) were grown in RPMI 1640 medium containing 10% foetal calf serum (FCS) and 1mM glutamine to a density of 1×10^6 /ml and harvested by centrifugation at 150g for 10 minutes. Cells were resuspended to a density of 2×10^7 /ml in RPMI 1640 containing 1% bovine serum albumin. [^125 I]-TNF was diluted to 2.1nM in the above buffer containing 0.6% sodium azide. Non-specific binding was estimated by measuring the binding in the presence of a 100 fold excess of unlabelled TNF. [^125 I]-TNF, final concentration 700pM, vinigrol at the stated concentration and cells at a density of 5×10^6 /ml were incubated in the above buffer for 2 hours at room temperature. The reaction was terminated by filtering onto a LKB filter mat (1205-401) followed by extensive washing with phosphate-buffered saline: The filter mat was counted for radioactivity to determine the quantity of bound [^125 I)-TNF.

[3] = in vitro; assay type: cell-based; settings: mouse, l929 cells
Description: as §1

SMILES: CC(C)C1CCC(C)C2CCC(C)C3(O)C1C=C(CO)C(O)C23 (stereo not drawn) [Vinigrol]
- inhibition at 3.1 µM [1]: 91%
- inhibition at 15.5 µM [1]: 100%
- inhibition at 77.5 µM [1]: 100%
- Inhibition of [125 I]-TNF-binding ([2]; vinigrol 3.1 μM): 8%
- Inhibition of [125 I]-TNF-binding ([2]; vinigrol 31 μM): 12%
- Inhibition of [125 I]-TNF-binding ([2]; vinigrol 310 μM): 100%
- cytotoxicity at 3.1 µM [3]: 30%
- cytotoxicity at 15.5 µM [3]: 0%
- cytotoxicity at 77.5 µM [3]: 7%
